pIC50: −log10 of the molar value. ≈ marks a conversion by molar mass, not a printed value. Read-outs that look alike come from different tables or passages of the source.
What was measured:
SW620 = test: Inhibition of cancer cell growth as measured by cell number, SW620; format: cell-based, human; conditions: Homo sapiens, SW-620, 48 h, Table 4;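 note: SW620 was included as a cell line with little or no EGFR or HER2/neu expression, in contrast to receptor-overexpressing lines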
From the text: (§1) The cell lines were chosen since they overexpressed epidermal growth factor receptor (EGFR) (i.e. A431) or HER2/neu (SKBR3), or had little to no expression of the these receptors (SW620, LOX, MCF7).

A2780DDP = test: Inhibition of cancer cell growth as measured by cell number, A2780DDP; format: cell-based; conditions: Homo sapiens, read-out: IC50 A2780DDP
LOX = test: Inhibition of cancer cell growth as measured by cell number, LOX; format: cell-based, human; conditions: Homo sapiens, LOX, 48 h, Table 6;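 note: LOX cells served as a line with low or absent EGFR and HER2/neu expression, in contrast to receptor-overexpressing lines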
From the text: as §1

NEC = test: Inhibition of cancer cell growth as measured by cell number, NEC; format: cell-based; conditions: Homo sapiens, read-out: IC50 NEC
COLO205 = test: Inhibition of cancer cell growth as measured by cell number, COLO205; format: cell-based; conditions: Homo sapiens, read-out: IC50 COLO205
T47D = test: Inhibition of cancer cell growth as measured by cell number, T47D; format: cell-based; conditions: Homo sapiens
PC3 = test: Inhibition of cancer cell growth as measured by cell number, PC3; format: cell-based; conditions: Homo sapiens, read-out: IC50 PC3
[1] = target: recombinant human MEK 1 (MAPKK) and recombinant human ERK2 (MAPK); test: Mitogen Activated Protein Kinase (MAPK) assay, two component coupled MEK 1 / ERK2; format: biochemical; conditions: separate entries for the same compound = evaluated more than one time;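 note: MEK 1-activated ERK2 phosphorylates MBP or Myc peptide with 33P-ATP, filter capture and scintillation counting, inhibitor preincubated with ERK2 30 min at 0 °C, inhibition relative to uninhibited control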
CX1 = test: Inhibition of cancer cell growth as measured by cell number, CX1; format: cell-based; conditions: Homo sapiens, read-out: IC50 CX1
[2] = target: epidermal growth factor receptor kinase (Homo sapiens, UniProt P00533); test: biochemical
SKBR3 = test: Inhibition of cancer cell growth as measured by cell number, SKBR3; format: cell-based, human; conditions: Homo sapiens, Table 7;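 note: SK-BR-3 cells were selected as a line overexpressing HER2/neu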
From the text: as §1

B7474 = test: Inhibition of cancer cell growth as measured by cell number, B7474; format: cell-based; conditions: Homo sapiens, read-out: IC50 B7474
A27805 = test: Inhibition of cancer cell growth as measured by cell number, A27805; format: cell-based; conditions: Homo sapiens, read-out: IC50 A27805
CACO2 = test: Inhibition of cancer cell growth as measured by cell number, CACO2; format: cell-based; conditions: Homo sapiens, read-out: IC50 CACO2
LS174T = test: Inhibition of cancer cell growth as measured by cell number, LS174T; format: cell-based; conditions: Homo sapiens
MCF7 = test: Inhibition of cancer cell growth as measured by cell number, MCF7; format: cell-based, human; conditions: Homo sapiens, MCF7, 48 h, Table 5;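 note: MCF7 was included as a line with little or no EGFR or HER2/neu expression, in contrast to the receptor-overexpressing lines of the panel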
From the text: as §1

HL60 = test: Inhibition of cancer cell growth as measured by cell number, HL60; format: cell-based; conditions: Homo sapiens, read-out: IC50 HL60
A431 = test: Inhibition of cancer cell growth as measured by cell number, A431; format: cell-based, human; conditions: Homo sapiens, A-431, 48 h, Table 6;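 note: human A431 line, picked because it overexpresses epidermal growth factor receptor (EGFR)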
From the text: as §1

HCT15 = test: Inhibition of cancer cell growth as measured by cell number, HCT15; format: cell-based; conditions: Homo sapiens, read-out: IC50 HCT15
LX1 = test: Inhibition of cancer cell growth as measured by cell number, LX1; format: cell-based; conditions: Homo sapiens, read-out: IC50 LX1
LNCAP = test: Inhibition of cancer cell growth as measured by cell number, LNCAP; format: cell-based; conditions: Homo sapiens
MIP = test: Inhibition of cancer cell growth as measured by cell number, MIP; format: cell-based; conditions: Homo sapiens; cell number, Sulforhodamine B, 48 hours exposure; Table 4; read-out: IC50 MIP
A549 = test: Inhibition of cancer cell growth as measured by cell number, A549; format: cell-based; conditions: Homo sapiens, read-out: IC50 A549
CCRF-CFM = test: Inhibition of cancer cell growth as measured by cell number, CCRF-CFM; format: cell-based; conditions: Homo sapiens, read-out: IC50 CCRF-CFM
SW948 = test: Inhibition of cancer cell growth as measured by cell number, SW948; format: cell-based; conditions: Homo sapiens, read-out: IC50 SW948
HTB161 = test: Inhibition of cancer cell growth as measured by cell number, HTB161; format: cell-based; conditions: Homo sapiens, read-out: IC50 HTB161
DU145 = test: Inhibition of cancer cell growth as measured by cell number, DU145; format: cell-based; conditions: Homo sapiens, read-out: IC50 DU145
CCL228 = test: Inhibition of cancer cell growth as measured by cell number, CCL228; format: cell-based; conditions: Homo sapiens, read-out: IC50 CCL228
[3] = target: T1, Kinase insert Domain containing Receptor (KDR: the catalytic domain of the VEGF receptor) (Homo sapiens, UniProt P35968); test: Inhibition of Kinase insert Domain containing Receptor (KDR); format: biochemical; conditions: pH 7.2; radioactive format; read-out: KDR IC50 (converted);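 note: KDR phosphorylating a Glu:Tyr 4:1 copolymer with P32- or P33-labelled ATP, Mg++ and vanadate, read as acid-insoluble radiolabel, compared with compound-free reaction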
T1 construct: KDR: the catalytic domain of the VEGF receptor
Method: In this standard pharmacological test procedure, KDR protein is mixed, in the presence or absence of a inhibitor compound, with a substrate peptide to be phosphorylated (a copolymer of glutamic acid and tyrosine, E:Y :: 4:1) and other cofactors such as Mg^++ and sodium vanadate (a protein tyrosine phosphatase inhibitor) in an appropriate buffer to maintain pH (7.2). ATP and a radioactive tracer (either P^32-or P^33- labeled ATP) is then add to initiate phosphorylation. After incubation, the radioactive phosphate associated with the acid-insoluble fraction of the assay mixture is then quantified as reflection of substrate phosphorylation.

[4] = cell number, Sulforhodamine B, 48 hours exposure, Table 4
[5] = cell number, Sulforhodamine B, 48 hours exposure, Table 6
[6] = read-out: IC50 SW620, cell number, Sulforhodamine B, 48 hours exposure
[7] = read-out: IC50 LOX, cell number, Sulforhodamine B, 48 hours exposure
[8] = SK-BR-3, 48 h, read-out: IC50 SKBR3, cell number, Sulforhodamine B, 48 hours exposure
[9] = read-out: IC50 MCF7, cell number, Sulforhodamine B, 48 hours exposure
[10] = read-out: IC50 A431, cell number, Sulforhodamine B, 48 hours exposure

T1 sequence (P35968 834-1162 limits assumed): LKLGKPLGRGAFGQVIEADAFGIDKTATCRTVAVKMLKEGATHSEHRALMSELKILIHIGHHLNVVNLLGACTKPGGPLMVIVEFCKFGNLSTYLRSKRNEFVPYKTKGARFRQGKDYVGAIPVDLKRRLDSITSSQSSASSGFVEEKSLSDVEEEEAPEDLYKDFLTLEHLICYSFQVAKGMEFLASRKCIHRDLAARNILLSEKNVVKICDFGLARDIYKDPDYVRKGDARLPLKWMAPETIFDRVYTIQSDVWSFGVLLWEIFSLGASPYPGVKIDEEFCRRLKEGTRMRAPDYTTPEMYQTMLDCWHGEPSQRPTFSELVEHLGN
Sequence of epidermal growth factor receptor kinase (P00533 25-1210): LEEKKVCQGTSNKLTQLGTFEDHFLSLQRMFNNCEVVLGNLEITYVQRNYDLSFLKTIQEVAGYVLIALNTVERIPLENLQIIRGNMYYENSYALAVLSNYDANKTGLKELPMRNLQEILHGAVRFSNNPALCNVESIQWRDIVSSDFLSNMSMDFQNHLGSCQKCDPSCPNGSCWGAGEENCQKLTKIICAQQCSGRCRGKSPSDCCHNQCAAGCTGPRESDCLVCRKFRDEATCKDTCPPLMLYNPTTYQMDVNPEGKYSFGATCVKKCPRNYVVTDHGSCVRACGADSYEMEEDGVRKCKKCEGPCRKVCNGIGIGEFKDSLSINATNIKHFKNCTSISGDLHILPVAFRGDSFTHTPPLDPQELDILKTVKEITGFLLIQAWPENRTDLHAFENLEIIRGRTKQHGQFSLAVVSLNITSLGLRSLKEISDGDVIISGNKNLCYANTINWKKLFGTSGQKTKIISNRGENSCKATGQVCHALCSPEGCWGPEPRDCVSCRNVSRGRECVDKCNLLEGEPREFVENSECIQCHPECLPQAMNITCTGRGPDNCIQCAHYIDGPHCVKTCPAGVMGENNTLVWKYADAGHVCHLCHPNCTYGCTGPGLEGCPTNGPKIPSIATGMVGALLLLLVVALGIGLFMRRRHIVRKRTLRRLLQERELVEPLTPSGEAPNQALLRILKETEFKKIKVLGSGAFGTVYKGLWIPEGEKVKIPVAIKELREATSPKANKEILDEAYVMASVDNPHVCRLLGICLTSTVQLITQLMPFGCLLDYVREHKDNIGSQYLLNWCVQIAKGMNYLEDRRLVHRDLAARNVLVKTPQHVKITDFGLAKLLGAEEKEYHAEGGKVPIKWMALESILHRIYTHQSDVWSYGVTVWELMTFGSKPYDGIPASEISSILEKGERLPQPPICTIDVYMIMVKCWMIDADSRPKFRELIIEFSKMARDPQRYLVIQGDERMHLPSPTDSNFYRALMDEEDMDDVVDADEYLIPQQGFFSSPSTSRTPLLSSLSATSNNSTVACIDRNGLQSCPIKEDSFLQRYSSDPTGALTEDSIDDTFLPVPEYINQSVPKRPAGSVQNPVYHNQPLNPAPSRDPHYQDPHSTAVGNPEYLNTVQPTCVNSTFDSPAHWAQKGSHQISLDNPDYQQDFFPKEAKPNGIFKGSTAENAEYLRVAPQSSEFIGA

`COc1cc2ncc(C#N)c(Sc3ccc(Br)cc3)c2cc1OC` [Example 50, 4-[(4-Bromophenyl)sulfanyl]-6,7-dimethoxy-3-quinolinecarbonitrile] showed an IC50 (SW620; cell number, Sulforhodamine B, 48 hours exposure, read-out: IC50 SW620) of 32.9 µg/mL (≈ 81.9 µM), an IC50 (A2780DDP; [4]) of 6.42 µg/mL (≈ 16 µM) and an IC50 (LOX; cell number, Sulforhodamine B, 48 hours exposure, read-out: IC50 LOX) of 4.7 µg/mL (≈ 11.7 µM). The IC50 (NEC; [5]) was 6.89 µg/mL (≈ 17.2 µM), the IC50 (COLO205; COLO 205, cell number, Sulforhodamine B, 48 hours exposure, Table 4) was 28.5 µg/mL (≈ 70.9 µM) and the IC50 (T47D; cell number, Sulforhodamine B, 48 hours exposure, Table 6, read-out: IC50 T47D) was 5.42 µg/mL (≈ 13.5 µM). For the same compound, the IC50 (PC3; PC-3, cell number, Sulforhodamine B, 48 hours exposure, Table 7) was 8.53 µg/mL (≈ 21.2 µM), the pIC50 [1] was under 4.00 and the IC50 (CX1; CX-1, cell number, Sulforhodamine B, 48 hours exposure, Table 4) was 8.72 µg/mL (≈ 21.7 µM). The pIC50 [2] was 5.30, the IC50 (SKBR3; SK-BR-3, cell number, Sulforhodamine B, 48 hours exposure, read-out: IC50 SKBR3) was 6.83 µg/mL (≈ 17 µM) and the IC50 (B7474; [5]) was 7.17 µg/mL (≈ 17.9 µM). For the same compound, the IC50 (A27805; [4]) was 4.68 µg/mL (≈ 11.7 µM), the IC50 (CACO2; Caco-2, cell number, Sulforhodamine B, 48 hours exposure, Table 5) was 4.89 µg/mL (≈ 12.2 µM) and the IC50 (LS174T; cell number, Sulforhodamine B, 48 hours exposure, Table 5, read-out: IC50 LS174T) was 7.68 µg/mL (≈ 19.1 µM). For the same compound, the IC50 (MCF7; cell number, Sulforhodamine B, 48 hours exposure, read-out: IC50 MCF7) was 7.14 µg/mL (≈ 17.8 µM), the IC50 (HL60; HL-60, cell number, Sulforhodamine B, 48 hours exposure, Table 7) was 4.72 µg/mL (≈ 11.8 µM) and the IC50 (A431; cell number, Sulforhodamine B, 48 hours exposure, read-out: IC50 A431) was 7.35 µg/mL (≈ 18.3 µM). The IC50 (HCT15; HCT-15, cell number, Sulforhodamine B, 48 hours exposure, Table 5) was 8.54 µg/mL (≈ 21.3 µM), the IC50 (LX1; LX-1, cell number, Sulforhodamine B, 48 hours exposure, Table 6) was 7.21 µg/mL (≈ 18 µM) and the IC50 (LNCAP; cell number, Sulforhodamine B, 48 hours exposure, Table 7, read-out: IC50 LNCAP) was 5.34 µg/mL (≈ 13.3 µM). The IC50 (MIP) was 7.35 µg/mL (≈ 18.3 µM), the IC50 (A549; A549, cell number, Sulforhodamine B, 48 hours exposure, Table 6) was 6.82 µg/mL (≈ 17 µM) and the IC50 (CCRF-CFM; cell number, Sulforhodamine B, 48 hours exposure, Table 7) was 4.6 µg/mL (≈ 11.5 µM). The IC50 (SW948; SW948, cell number, Sulforhodamine B, 48 hours exposure, Table 5) was 17.9 µg/mL (≈ 44.6 µM), the IC50 (HTB161; [4]) was 4.46 µg/mL (≈ 11.1 µM) and the IC50 (DU145; DU-145, cell number, Sulforhodamine B, 48 hours exposure, Table 7) was 5.6 µg/mL (≈ 14 µM). For the same compound, the IC50 (CCL228; cell number, Sulforhodamine B, 48 hours exposure, Table 5) was 6.79 µg/mL (≈ 16.9 µM).

With `C=CC(=O)Nc1cc2c(Nc3cccc(Br)c3)c(C#N)cnc2cc1OC` [Example 9, N-[4-[(3-Bromophenyl)amino]-3-cyano-7-methoxy-6-quinolinyl]-2-propenamide] the IC50 (SW620; [6]) was 1.94 µg/mL (≈ 4.58 µM), the IC50 (A2780DDP; 48 h) was 0.513 µg/mL (≈ 1.21 µM) and the IC50 (LOX; [7]) was 0.438 µg/mL (≈ 1.04 µM). The IC50 (NEC; 48 h) was 0.952 µg/mL (≈ 2.25 µM), the IC50 [3] was over 70.9 µM and the IC50 (COLO205; COLO 205, 48 h) was 2.56 µg/mL (≈ 6.06 µM). For the same compound, the IC50 (T47D; 48 h, read-out: IC50 T47D) was 0.838 µg/mL (≈ 1.98 µM), the IC50 (PC3; PC-3, 48 h) was 1.66 µg/mL (≈ 3.92 µM) and the pIC50 [1] was under 4.00. For the same compound, the IC50 (CX1; CX-1, 48 h) was 0.91 µg/mL (≈ 2.15 µM), the IC50 (SKBR3; [8]) was 0.862 µg/mL (≈ 2.04 µM) and the IC50 (B7474; 48 h) was 0.443 µg/mL (≈ 1.05 µM). The IC50 (A27805; 48 h) was 0.542 µg/mL (≈ 1.28 µM), the IC50 (CACO2; Caco-2, 48 h) was 0.341 µg/mL (≈ 0.805 µM) and the IC50 (LS174T; 48 h, read-out: IC50 LS174T) was 0.712 µg/mL (≈ 1.68 µM). The IC50 (MCF7; [9]) was 3.25 µg/mL (≈ 7.69 µM), the IC50 (HL60; HL-60, 48 h) was 0.758 µg/mL (≈ 1.79 µM) and the IC50 (A431; [10]) was 0.433 µg/mL (≈ 1.02 µM). It also gave an IC50 (HCT15; HCT-15, 48 h) of 0.984 µg/mL (≈ 2.33 µM), an IC50 (LX1; LX-1, 48 h) of 0.0672 µg/mL (≈ 0.159 µM) and an IC50 (LNCAP; 48 h, read-out: IC50 LNCAP) of 0.661 µg/mL (≈ 1.56 µM). The IC50 (MIP) was 0.731 µg/mL (≈ 1.73 µM), the IC50 (A549; A549, 48 h) was 2.92 µg/mL (≈ 6.89 µM) and the IC50 (CCRF-CFM; 48 h) was 0.551 µg/mL (≈ 1.3 µM). It also gave an IC50 (SW948; SW948, 48 h) of 3.3 µg/mL (≈ 7.8 µM), an IC50 (HTB161; 48 h) of 0.341 µg/mL (≈ 0.806 µM) and an IC50 (DU145; DU-145, 48 h) of 0.388 µg/mL (≈ 0.916 µM). It also gave an IC50 (CCL228; 48 h) of 0.707 µg/mL (≈ 1.67 µM).

With `COc1cc2ncc(C#N)c(Nc3cccc(Br)c3)c2cc1[N+](=O)[O-]` [Example 6] the IC50 (SW620; [6]) was 4.71 µg/mL (≈ 11.8 µM), the IC50 (A2780DDP; 48 h) was 3.22 µg/mL (≈ 8.06 µM) and the IC50 (LOX; [7]) was 0.813 µg/mL (≈ 2.04 µM). For the same compound, the IC50 (NEC; 48 h) was 4.17 µg/mL (≈ 10.4 µM), the IC50 (COLO205; COLO 205, 48 h) was 5.51 µg/mL (≈ 13.8 µM) and the IC50 (T47D; 48 h, read-out: IC50 T47D) was 3.26 µg/mL (≈ 8.18 µM). For the same compound, the IC50 (PC3; PC-3, 48 h) was 4.69 µg/mL (≈ 11.7 µM), the pIC50 [1] was under 4.00 and the IC50 (CX1; CX-1, 48 h) was 3.02 µg/mL (≈ 7.58 µM). The IC50 (SKBR3; [8]) was 4.2 µg/mL (≈ 10.5 µM), the IC50 (B7474; 48 h) was 3.76 µg/mL (≈ 9.41 µM) and the IC50 (A27805; 48 h) was 2.49 µg/mL (≈ 6.23 µM). For the same compound, the IC50 (CACO2; Caco-2, 48 h) was 0.808 µg/mL (≈ 2.02 µM), the IC50 (LS174T; 48 h, read-out: IC50 LS174T) was 2.67 µg/mL (≈ 6.7 µM) and the IC50 (MCF7; [9]) was 4.27 µg/mL (≈ 10.7 µM). The IC50 (HL60; HL-60, 48 h) was 0.947 µg/mL (≈ 2.37 µM), the IC50 (A431; [10]) was 0.845 µg/mL (≈ 2.12 µM) and the IC50 (HCT15; HCT-15, 48 h) was 1.75 µg/mL (≈ 4.38 µM). It also gave an IC50 (LX1; LX-1, 48 h) of 5.55 µg/mL (≈ 13.9 µM), an IC50 (LNCAP; 48 h, read-out: IC50 LNCAP) of 4.19 µg/mL (≈ 10.5 µM) and an IC50 (MIP) of 0.95 µg/mL (≈ 2.38 µM). For the same compound, the IC50 (A549; A549, 48 h) was 4.45 µg/mL (≈ 11.1 µM), the IC50 (CCRF-CFM; 48 h) was 2.57 µg/mL (≈ 6.44 µM) and the IC50 (SW948; SW948, 48 h) was 5.2 µg/mL (≈ 13 µM). It also gave an IC50 (HTB161; 48 h) of 1.66 µg/mL (≈ 4.15 µM), an IC50 (DU145; DU-145, 48 h) of 1.03 µg/mL (≈ 2.59 µM) and an IC50 (CCL228; 48 h) of 2.35 µg/mL (≈ 5.88 µM).
